Results reported in patent publication US6737383B1, “Herbicidal oxadiazolidines” (priority 1999, dated 2004).

Key:
surinam grass = assay: Test B pre/postemergence surinam grass; assay type: in vivo, Brachiaria decumbens
Procedure, shortened: (§1)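 Herbicidal effect was estimated by eye on a ten-point control scale after plants spent twelve to sixteen days in a greenhouse following soil or foliar treatment. Foliar sprays targeted plants at one to four leaves; all doses were formulated in a non-phytotoxic solvent with surfactant.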

soybean = assay: Test B pre/postemergence soybean; assay type: in vivo, Glycine max
Procedure, shortened: as §1

purple nutsedge = assay: Test B pre/postemergence purple nutsedge; assay type: in vivo, Cyperus rotundus
Procedure, shortened: as §1

wheat = assay: Test B pre/postemergence wheat; assay type: in vivo, Triticum aestivum
Procedure, shortened: as §1

velvetleaf = assay: Test B pre/postemergence velvetleaf; assay type: in vivo, Abutilon theophrasti
Procedure, shortened: as §1

duck salad = assay: Test B flood test duck salad; assay type: in vivo, Heteranthera limosa
Procedure, shortened: (§2)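 Each value is a visual injury score relative to controls, with 10 meaning complete control and 0 no effect. Evaluation took place twelve to sixteen days after the 2-leaf-stage plants were treated and kept in the greenhouse.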

rape = assay: Test B pre/postemergence rape; assay type: in vivo, Brassica napus
Procedure, shortened: as §1

giant foxtail = assay: Test B pre/postemergence giant foxtail; assay type: in vivo, Setaria faberii
Procedure, shortened: as §1

blackgrass = assay: Test B pre/postemergence blackgrass; assay type: in vivo, Alopecurus myosuroides
Procedure, shortened: as §1

wild oat = assay: Test B pre/postemergence wild oat; assay type: in vivo, Avena fatua
Procedure, shortened: as §1

smallflower flatsedge = assay: Test B flood test smallflower flatsedge; assay type: in vivo, Cyperus difformis
Procedure, shortened: as §2

pigweed = assay: Test B pre/postemergence pigweed; assay type: in vivo, Amaranthus retroflexus
Procedure, shortened: as §1

cocklebur = assay: Test B pre/postemergence cocklebur; assay type: in vivo, Xanthium strumarium
Procedure, shortened: as §1

bamyardgrass = assay: Test B flood test barnyardgrass; assay type: in vivo, Echinochloa crus-galli
Procedure, shortened: as §2

morningglory = assay: Test B pre/postemergence morningglory; assay type: in vivo, Ipomoea hederacea
Procedure, shortened: as §1

bedstraw = assay: Test B pre/postemergence bedstraw; assay type: in vivo, Galium aparine
Procedure, shortened: as §1

[1] = Postemergence, Rate 62 g/ha, scale 0 to 10, 0 is no effect, 10 is complete control
[2] = Postemergence, Rate 250 g/ha, scale 0 to 10, 0 no effect, 10 complete control
[3] = Preemergence, Rate 62 g/ha, scale 0 to 10 (0 no effect, 10 complete control)
[4] = Preemergence, Rate 125 g/ha, scale 0 to 10 (0 no effect, 10 complete control)
[5] = Preemergence, Rate 250 g/ha, scale of 0 to 10 where 0 is no effect and 10 is complete control
[6] = Preemergence, Rate 500 g/ha, scale 0 (no effect) to 10 (complete control)
[7] = Rate 125 g/ha, Postemergence, scale 0 to 10, 0 no effect, 10 complete control
[8] = Rate 500 g/ha, Postemergence, scale 0 to 10, 0 no effect, 10 complete control
[9] = Rate 62 g/ha, headed Pre-emergence (flood test species), scale 0 to 10 (0 no effect, 10 complete control)
[10] = Rate 125 g/ha, Pre-emergence, flood test species, scale 0 to 10 where 0 is no effect and 10 is complete control
[11] = Rate 250 g/ha, headed Pre-emergence (flood test species), scale 0 to 10 (0 no effect, 10 complete control)
[12] = Rate 500 g/ha, headed Pre-emergence (flood test species), scale 0 to 10 (0 no effect, 10 complete control)

## Cc1ccccc1-n1c(=O)on(C(=O)N(Cc2ccccc2)C(C)C)c1=O [Compound 72]
Surinam grass; [1]
  B. signalgrass plant response rating: 0
Surinam grass; [2]
  B. signalgrass plant response rating: 0
Surinam grass; [3]
  B. signalgrass plant response rating: 0
Surinam grass; [4]
  Plant response rating, B. signalgrass: 0
Surinam grass; [5]
  Plant response rating, B. signalgrass: 0
Surinam grass; [6]
  B. signalgrass plant response rating: 0
Surinam grass; [7]
  B. signalgrass plant response rating: 0
Surinam grass; Rate 500 g/ha, Postemergence, scale of 0 to 10 where 0 is no effect and 10 is complete control
  B. signalgrass plant response rating: 0
soybean; [1]
  Soybean plant response rating: 0
soybean; [2]
  Soybean plant response rating: 0
soybean; [3]
  Soybean plant response rating: 0
soybean; [4]
  Plant response rating, Soybean: 0
soybean; [5]
  Plant response rating, Soybean: 0
soybean; [6]
  Soybean plant response rating: 0
soybean; [7]
  Soybean plant response rating: 0
soybean; [8]
  Soybean plant response rating: 0
Purple nutsedge; [1]
  Nutsedge plant response rating: 0
Purple nutsedge; [2]
  Nutsedge plant response rating: 0
Purple nutsedge; [3]
  Nutsedge plant response rating: 0
Purple nutsedge; [4]
  Plant response rating, Nutsedge: 0
Purple nutsedge; [5]
  Plant response rating, Nutsedge: 0
Purple nutsedge; [6]
  Nutsedge plant response rating: 0
Purple nutsedge; [7]
  Nutsedge plant response rating: 0
Purple nutsedge; [8]
  Nutsedge plant response rating: 0
wheat; [1]
  Wheat plant response rating: 0
wheat; [2]
  Wheat plant response rating: 0
wheat; [3]
  Wheat plant response rating: 0
wheat; [4]
  Plant response rating, Wheat: 0
wheat; [5]
  Plant response rating, Wheat: 0
wheat; [6]
  Wheat plant response rating: 0
wheat; [7]
  Wheat plant response rating: 0
wheat; [8]
  Wheat plant response rating: 0
velvetleaf; [1]
  Velvetleaf plant response rating: 0
velvetleaf; [2]
  Velvetleaf plant response rating: 0
velvetleaf; [3]
  Velvetleaf plant response rating: 0
velvetleaf; [4]
  Plant response rating, Velvetleaf: 0
velvetleaf; [5]
  Plant response rating, Velvetleaf: 0
velvetleaf; [6]
  Velvetleaf plant response rating: 0
velvetleaf; [7]
  Velvetleaf plant response rating: 0
velvetleaf; [8]
  Velvetleaf plant response rating: 0
Duck salad; [9]
  Ducksalad plant response rating: 0
Duck salad; [10]
  Ducksalad plant response rating: 0
Duck salad; [11]
  Ducksalad plant response rating: 0
Duck salad; [12]
  Plant response rating, Ducksalad: 0
rape; [1]
  Rape plant response rating: 0
rape; [2]
  Rape plant response rating: 0
rape; [3]
  Rape plant response rating: 0
rape; [4]
  Plant response rating, Rape: 0
rape; [5]
  Plant response rating, Rape: 0
rape; [6]
  Rape plant response rating: 0
rape; [7]
  Rape plant response rating: 0
rape; [8]
  Rape plant response rating: 0
Giant foxtail; [1]
  Giant foxtail plant response rating: 0
Giant foxtail; [2]
  Giant foxtail plant response rating: 0
Giant foxtail; [3]
  Giant foxtail plant response rating: 0
Giant foxtail; [4]
  Plant response rating, Giant foxtail: 0
Giant foxtail; [5]
  Plant response rating, Giant foxtail: 2
Giant foxtail; [6]
  Giant foxtail plant response rating: 2
Giant foxtail; [7]
  Giant foxtail plant response rating: 0
Giant foxtail; [8]
  Giant foxtail plant response rating: 0
blackgrass; [1]
  Blackgrass plant response rating: 0
blackgrass; [2]
  Blackgrass plant response rating: 0
blackgrass; [3]
  Blackgrass plant response rating: 0
blackgrass; [4]
  Plant response rating, Blackgrass: 0
blackgrass; [5]
  Plant response rating, Blackgrass: 0
blackgrass; [6]
  Blackgrass plant response rating: 0
blackgrass; [7]
  Blackgrass plant response rating: 0
blackgrass; [8]
  Blackgrass plant response rating: 0
Wild oat; [1]
  Wild oats plant response rating: 0
Wild oat; [2]
  Wild oats plant response rating: 0
Wild oat; [3]
  Wild oats plant response rating: 0
Wild oat; [4]
  Plant response rating, Wild oats: 0
Wild oat; [5]
  Plant response rating, Wild oats: 0
Wild oat; [6]
  Wild oats plant response rating: 0
Wild oat; [7]
  Wild oats plant response rating: 0
Wild oat; [8]
  Wild oats plant response rating: 0
Smallflower flatsedge; [9]
  S. Flatsedge plant response rating: 0
Smallflower flatsedge; [10]
  S. Flatsedge plant response rating: 0
Smallflower flatsedge; [11]
  S. Flatsedge plant response rating: 0
Smallflower flatsedge; [12]
  Plant response rating, S. Flatsedge: 0
pigweed; [1]
  Redroot pigweed plant response rating: 0
pigweed; [2]
  Redroot pigweed plant response rating: 0
pigweed; [3]
  Redroot pigweed plant response rating: 0
pigweed; [4]
  Plant response rating, Redroot pigweed: 0
pigweed; [5]
  Plant response rating, Redroot pigweed: 0
pigweed; [6]
  Redroot pigweed plant response rating: 0
pigweed; [7]
  Redroot pigweed plant response rating: 0
pigweed; [8]
  Redroot pigweed plant response rating: 0
cocklebur; [1]
  Cocklebur plant response rating: 0
cocklebur; [2]
  Cocklebur plant response rating: 0
cocklebur; [3]
  Cocklebur plant response rating: 0
cocklebur; [4]
  Plant response rating, Cocklebur: 0
cocklebur; [5]
  Plant response rating, Cocklebur: 0
cocklebur; [6]
  Cocklebur plant response rating: 0
cocklebur; [7]
  Cocklebur plant response rating: 0
cocklebur; [8]
  Cocklebur plant response rating: 0
bamyardgrass; [9]
  Barnyardgrass plant response rating: 0
bamyardgrass; [10]
  Barnyardgrass plant response rating: 0
bamyardgrass; [11]
  Barnyardgrass plant response rating: 0
bamyardgrass; [12]
  Plant response rating, Barnyardgrass: 0
morningglory; [1]
  Morningglory plant response rating: 0
morningglory; [2]
  Morningglory plant response rating: 0
morningglory; [3]
  Morningglory plant response rating: 0
morningglory; [4]
  Plant response rating, Morningglory: 0
morningglory; [5]
  Plant response rating, Morningglory: 0
morningglory; [6]
  Morningglory plant response rating: 0
morningglory; [7]
  Morningglory plant response rating: 0
morningglory; [8]
  Morningglory plant response rating: 0
bedstraw; [1]
  Bedstraw plant response rating: 0
bedstraw; [2]
  Bedstraw plant response rating: 0
bedstraw; [3]
  Bedstraw plant response rating: 0
bedstraw; [4]
  Plant response rating, Bedstraw: 0
bedstraw; [5]
  Plant response rating, Bedstraw: 0
bedstraw; [6]
  Bedstraw plant response rating: 0
bedstraw; [7]
  Bedstraw plant response rating: 0
bedstraw; [8]
  Bedstraw plant response rating: 0
